Test results taken from patent US20080280866A1, “Method of Treating or Sepsis” (priority 2004, published 2008).
“Also recorded” adds a separate entry of the source. Read-outs that look alike come from different tables or passages of the source.

Columns and labels:
SOC channels = conditions: HL-60 cells, values determined by Harper; cited from earlier work
[1] = system: voltage-dependent L-type calcium channels; conditions: GH4C1 cells, values determined by Harper; cited from earlier work
[2] = assay type: in vivo
Procedure: In all the above experiments, rats undergoing T/HS were treated with SKI-2 or N-propargyl-nitrendipine given as an IP bolus just after the BP nadir. At this point, MAP has risen only from 30-40 to approximately 50 mmHg.

p38 MAP kinase = experiment: Rat T/HS, post-shock treatment: Western blot of PMN phosphorylated p38 MAP kinase; assay type: in vivo; conditions: IP post-treatment; PMN lysates 3 hours after T/HS; FIG. 4
Procedure: The phosphorylation of p38-mitogen associated protein kinase [“p38 MAP kinase”] in the presence of inflammatory stimuli is a key cellular mechanism involved in irreversible neutrophil activation and post-shock organ injury. Male rats underwent T/HS with or without 4-[4-(4-chloro-phenyl)-thiazol-2-ylamino]-phenol or N-propargyl-nitrendipine administered IP in post-treatment as above. At the end of 3 hours post reperfusion, animals were sacrificed by exsanguination. PMN were isolated. Whole cell lysates were probed using specific antibodies for phosphorylated p38 MAP kinase. SOC inhibition via either strategy led to diminished activation. Lysates of rat PMN were sampled 3 hours after T/HS. Animals were treated with 4-[4-(4-chloro-phenyl)-thiazol-2-ylamino]-phenol or vehicle (DMSO) at the time of resuscitation. Positive controls (+) were rat PMN activated in vitro with fMLP. […] Thus SIP/SOC inhibition diminishes PMN p38 MAP kinase activation by T/HS.

[3] = system: rat traumatic, hemorrhagic shock model; experiment: Rat traumatic, hemorrhagic shock model, treatment prior to shock
Procedure: A rat traumatic, hemorrhagic shock model was used (32). […] Animals were then underwent T/HS, were resuscitated with shed blood and sacrificed by exsanguination 3 hours after resuscitation. We assayed lung injury as % Evans Blue dye leak, which provides a measure of the leakiness of lung capillaries. PMN activation was assessed as CD11b expression by flow cytometry (Table 1).

rat T/HS = experiment: Rat T/HS, post-shock treatment: lung MPO and Evans Blue dye leak; assay type: in vivo; conditions: IP after return of 10% of shed blood, estimated plasma level 30 μM; 3 hours after reperfusion; FIG. 1
Procedure: Male rats underwent standard T/HS. 4-[4-(4-Chloro-phenyl)-thiazol-2-ylamino]-phenol or N-propargyl-nitrendipine (estimated plasma level 30 μM for each) or vehicle were administered IP after the return of 10% of total shed blood to the animal. Different groups of animals (n=6/group) were sacrificed 3 hours after reperfusion for bronchoalveolar lavage and Evan's Blue dye leak assay, or to harvest the lungs for MPO assays (FIG. 1).
N=6 animals per condition, *p<0.01 for inter-group comparisons.

PMN = experiment: Rat T/HS, post-shock treatment: PMN CD11b and respiratory burst by flow cytometry; assay type: in vivo; conditions: IP post-treatment, whole blood 3 hrs post reperfusion; for PMN CD11b expression: FIG. 2; for PMN priming for respiratory burst initiated by PMA: FIG. 3
Procedure: Male rats underwent T/HS with or without 4-[4-(4-chloro-phenyl)-thiazol-2-ylamino]-phenol or N-propargyl-nitrendipine administered IP in post-treatment as above. Small (200 μL) whole blood samples removed prior to shock and 3 hrs post reperfusion were assayed for PMN CD11b (FIG. 2) and respiratory burst (FIG. 3) by flow cytometry. […] Left histogram, preshock; Right histogram, 3 h post-shock; Center (dark) histogram, 3 h post-shock PMN from animal treated with the indicated drug during resuscitation. Representative flow histograms, n=3-4 per condition. P<0.01, ANOVA/Tukey's test for all inter-group comparisons. […] Representative flow histograms are arranged as in FIG. 2, n=3-4 per condition. P<0.01 by ANOVA/Tukey's test for all inter-group comparisons.

PMN SOC = conditions: cited from earlier work
[4] = IP bolus just after the BP nadir

COC(=O)C1=C(C)N(C)C(C)=C(C(=O)OC)C1c1cccc([N+](=O)[O-])c1 [Compound 30]
IC50 (SOC channels): 2800 ± 30 nM
IC50 [1]: 2000 nM

CCOC(=O)C1=C(C)N(C)C(C)=C(C(=O)OC)C1c1cccc([N+](=O)[O-])c1 (stereo not shown) [Compound 32]
IC50 (SOC channels): 2600 ± 1100 nM
IC50 [1]: 1300 ± 300 nM

CCOC(=O)C1=C(C)N(CC)C(C)=C(C(=O)OC)C1c1cccc([N+](=O)[O-])c1 (stereo not shown) [Compound 33]
IC50 (SOC channels): 6000 nM
IC50 [1]: 2300 ± 400 nM

C=CCN1C(C)=C(C(=O)OC)C(c2cccc([N+](=O)[O-])c2)C(C(=O)OCC)=C1C (stereo not shown) [Compound 34]
IC50 (SOC channels): 6800 ± 1800 nM
IC50 [1]: 3800 ± 1800 nM

C#CCN1C(C)=C(C(=O)OC)C(c2cccc([N+](=O)[O-])c2)C(C(=O)OCC)=C1C (stereo not shown) [Compound 35, N-propargyl-nitrendipine]
IC50 (SOC channels): 1700 ± 1300 nM
Episodes of hypotension [2, 4]: No episodes of hypotension were seen
Survival of the acute shock phase [2, 4]: all animals survived the acute shock phase
IC50 [1]: 2100 ± 200 nM
PMN p38 MAP kinase phosphorylation/activation (p38 MAP kinase): Attenuation of p38 MAP Kinase phosphorylation and activation was also seen
Attenuation of lung injury ([3]; pre-treatment IP, target concentration 30 μm): Identical attenuation of lung injury as in Example 1
Lung PMN infiltration by myeloperoxidase (MPO) assay ([3]; pre-treatment IP, data not shown): diminished lung PMN infiltration
Capillary-alveolar leakage (Evans Blue dye leak) (rat T/HS): prevented PMN accumulation and subsequent capillary-alveolar leakage; also recorded: yielded the same effects
Pulmonary PMN infiltration/accumulation (MPO assay) (rat T/HS): prevented PMN accumulation; also recorded: yielded the same effects
PMN CD11b expression (PMN): decreased CD11b expression almost to the level seen prior to shock
PMN priming for respiratory burst initiated by PMA (PMN): decreased PMN priming for respiratory burst initiated by PMA (phorbol 12-myristate 13-acetate) almost to the levels seen prior to shock

Oc1ccc(Nc2nc(-c3ccc(Cl)cc3)cs2)cc1 [SKI-2, 4-[4-(4-Chloro-phenyl)-thiazol-2-ylamino]-phenol]
Episodes of hypotension [2, 4]: No episodes of hypotension were seen
Survival of the acute shock phase ([2]; rat, in vivo, ip): all animals survived the acute shock phase
PMN p38 MAP kinase phosphorylation/activation (p38 MAP kinase): attenuation of MAPK activation
CD11b (MFI) ([3]; PMN activation by flow cytometry, IP at laparotomy prior to shock, estimated plasma level 30 μM, 3 hours after resuscitation): 225 ± 18 MFI
Evans Blue (%) ([3]; lung injury as % Evans Blue dye leak, IP prior to shock, estimated plasma level 30 μM, 3 hours after resuscitation): 3.8 ± 1.7 %
Hemodynamic effects ([3]; pre-treatment IP): No unexpected hemodynamic effects were noted
Phlebotomy volumes ([3]; treatment vs placebo groups, pre-treatment IP): identical in the treatment and placebo groups
Capillary-alveolar leakage (Evans Blue dye leak) (rat T/HS): prevented PMN accumulation and subsequent capillary-alveolar leakage; also recorded: inhibits PMN mediated lung injury
Pulmonary PMN infiltration/accumulation (MPO assay) (rat T/HS): prevented PMN accumulation; also recorded: inhibits PMN mediated lung injury
PMN CD11b expression (PMN): decreased CD11b expression almost to the level seen prior to shock
PMN priming for respiratory burst initiated by PMA (PMN): decreased PMN priming for respiratory burst initiated by PMA (phorbol 12-myristate 13-acetate) almost to the levels seen prior to shock

[Gd+3] [gadolinium (Gd3+), gadolinium]
Concentration inhibiting PMN SOC (PMN SOC): low-mid nanomolar concentrations
